Experimental data as given in KR20190134073A, “셀레질린을 유효성분으로 포함하는 급성 골수성 백혈병의 예방 또는 치료용 약학 조성물” (충남대학교산학협력단, priority 2018, dated 2019).

Assays:
Assay type in all cases: cell-based
[1] = system: U937 cells (acute myeloid leukemia cells) [급성 골수성 백혈병 세포(U937)]; experiment: cells; conditions: for cell killing effect: acute leukemia cells (U937), 0.5, 1, 2 and 4 mM, 24 h, in words
[2] = system: KG-1α cells (refractory or relapsed acute myeloid leukemia cells) [불응성 또는 재발성 급성 골수성 백혈병 세포(KG-1α)]; experiment: Cell viability (CCK-8) in refractory/relapsed AML cells KG-1α; conditions: for viability at 500 µM / viability at 1000 µM / viability at 2000 µM / viability at 4000 µM: Homo sapiens, KG-1, 24 h, read-out: cell viability; for cell killing effect: KG-1α, 0.5, 1, 2 and 4 mM, 24 h, in words
[3] = system: KG-1α cells (refractory or relapsed acute myeloid leukemia cells) [불응성 또는 재발성 급성 골수성 백혈병 세포(KG-1α)]; experiment: Change of mitochondrial oxygen consumption rate in KG-1α cells; conditions: 0, 0.5, 1, 2, 4 mM, 20 min, FIG. 2, in words
[4] = system: KG-1α cells (refractory or relapsed acute myeloid leukemia cells) [불응성 또는 재발성 급성 골수성 백혈병 세포(KG-1α)]; experiment: Change of ATP production in KG-1α cells (ATPlite 1step kit); conditions: 4 mM, 20 min, 37℃, control PBS, FIG. 3, in words
[5] = system: K562 cells (chronic myeloid leukemia cells) [만성 골수성 백혈병 세포(K562)]; experiment: Cell viability (CCK-8) in CML cells K562; conditions: K562 vs U937 or KG-1α; 0.5, 1, 2 and 4 mM; 24 h; in words, not shown in Table 1
[6] = Homo sapiens, U-937, 24 h, read-out: cell viability

C#CCN(C)[C@H](C)Cc1ccccc1 [셀레질린, selegiline]
cell killing effect [1]: 세포 사멸 효과를 모두 나타내는 것
viability at 500 µM [2]: 93.1%
viability at 1000 µM [2]: 86%
viability at 2000 µM [2]: 63%
viability at 4000 µM [2]: 51.8%
cell killing effect [2]: 세포 사멸 효과가 우수하게 나타남
oxygen consumption rate [3]: 산소 소모율이 농도 의존적으로 감소함
ATP production [4]: ATP 생성이 감소됨
cell killing effect in K562 compared with U937 or KG-1α [5]: 만성 골수성 백혈병 세포(K562)에 대한 세포 사멸 효과 보다는 급성 골수성 백혈병 세포(U937) 또는 불응성 또는 재발성 급성 골수성 백혈병 세포(KG-1α)에 대한 세포 사멸 효과가 우수하였다

Nc1ccn([C@@H]2O[C@H](CO)[C@@H](O)[C@@H]2O)c(=O)n1 [시타라빈]
viability at 500 µM [1, 6]: 45.3%
viability at 1000 µM [1, 6]: 43.9%
viability at 2000 µM [1, 6]: 40.9%
viability at 4000 µM [1, 6]: 40.7%
cell killing effect [1]: 세포 사멸 효과는 우수하였으나
viability at 500 µM [2]: 95.2%
viability at 1000 µM [2]: 96.9%
viability at 2000 µM [2]: 97.7%
viability at 4000 µM [2]: 95.3%
cell killing effect [2]: 세포 사멸 효과를 나타내지 않은
